Measurements taken from patent US20240174618A1, “SUBSTITUTED (2-HETEROARYLOXYPHENYL)SULFONATES, SALTS THEREOF AND THEIR USE AS HERBICIDAL AGENTS” (Bayer Aktiengesellschaft, priority 2021, published 2024).

How the values were obtained:
Format in all cases: in vivo
[1] = tested on: Veronica persica (VERPE); assay: A. Herbicidal pre-emergence efficacy, VERPE; settings: for Pre-emergence efficacy against VERPE: dosage 80 g/ha
In short: (§1)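 Pre-emergence soil-surface spray in sandy loam pots, WP/EC in water plus 0.5% additive, 600 L/ha. Visual % damage rating after about 3 weeks in greenhouse vs. untreated; 0% = control-like, 100% = dead plants. Rates up to 1280 g/ha.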

[2] = tested on: Stellaria media (STEME); assay: A. Herbicidal pre-emergence efficacy, STEME
In short: as §1

[3] = tested on: Abutilon theophrasti (ABUTH); assay: C. Herbicidal pre-emergence efficacy, ABUTH; settings: scored after about 3 weeks
In short: (§2)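 Pre-emergence test: formulated compounds sprayed as aqueous suspension or emulsion with 0.5% additive at 600 l/ha onto soil covering sown seeds, at rates corresponding to 320 g/ha or less. After about 3 weeks in greenhouse, efficacy scored visually as percent versus untreated controls (100% = plants dead).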

[4] = tested on: Digitaria sanguinalis (DIGSA); assay: C. Herbicidal pre-emergence efficacy, DIGSA; settings: scored after about 3 weeks
In short: as §2

[5] = tested on: Setaria viridis (SETVI); assay: C. Herbicidal pre-emergence efficacy, SETVI; settings: scored after about 3 weeks
In short: as §2

[6] = tested on: Amaranthus retroflexus (AMARE); assay: B. Herbicidal post-emergence efficacy, AMARE
In short: (§3)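 Post-emergence greenhouse test: one-leaf-stage plants, compound (WP/EC, +0.5% additive, 600 L/ha water, ≤1280 g/ha) applied to green parts; % efficacy scored visually vs untreated after ~3 wk; 100% = plants died.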

[7] = tested on: Veronica persica (VERPE); assay: B. Herbicidal post-emergence efficacy, VERPE
In short: as §3

[8] = tested on: Pharbitis purpurea (PHBPU); assay: E. Herbicidal post-emergence efficacy, PHBPU
In short: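 Greenhouse post-emergence spray, one-leaf stage (2–3 wk after sowing, sandy loam); WP/EC formulation, aqueous + 0.5% additive, 600 l/ha water; rates 320 g/ha or less. Visual rating ~3 wk later vs untreated; 0% = control-like, 100% = dead.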

CC(C)CCS(=O)(=O)Oc1ccccc1Oc1ncc(Cl)cn1 [Example I-25]
Pre-emergence efficacy against VERPE in % ([1]; 1280 g/ha): 90% | Pre-emergence efficacy against STEME ([2]; dosage 320 g/ha): 90% | Pre-emergence efficacy against STEME ([2]; dosage 1280 g/ha): 100% | Pre-emergence efficacy against ABUTH ([3]; 320 g/ha): 100% | Pre-emergence efficacy against DIGSA ([4]; 80 g/ha): 100% | Pre-emergence efficacy against DIGSA ([4]; 320 g/ha): 100% | Pre-emergence efficacy against SETVI ([5]; 80 g/ha): 80% | Pre-emergence efficacy against SETVI ([5]; 320 g/ha): 100% | Post-emergence efficacy against AMARE ([6]; 80 g/ha): 90% | Post-emergence efficacy against AMARE ([6]; 320 g/ha): 100% | Post-emergence efficacy against AMARE ([6]; 1280 g/ha): 100% | Post-emergence efficacy against VERPE ([7]; 80 g/ha): 100% | Post-emergence efficacy against VERPE ([7]; 320 g/ha): 100% | Post-emergence efficacy against VERPE ([7]; 1280 g/ha): 100% | Post-emergence efficacy against PHBPU in % ([8]; application rate 80 g/ha): 80% | Post-emergence efficacy against PHBPU in % ([8]; application rate 320 g/ha): 90%

O=S(=O)(CCC(F)(F)F)Oc1c(Cl)cccc1Oc1ncc(Br)cn1 [Example I-32]
Pre-emergence efficacy against VERPE in % ([1]; 320 g/ha): 90% | Pre-emergence efficacy against VERPE in % ([1]; 1280 g/ha): 100% | Pre-emergence efficacy against VERPE [1]: 90% | Pre-emergence efficacy against STEME ([2]; dosage 320 g/ha): 90% | Pre-emergence efficacy against STEME ([2]; dosage 1280 g/ha): 90% | Pre-emergence efficacy against ABUTH ([3]; 80 g/ha): 90% | Pre-emergence efficacy against ABUTH ([3]; 320 g/ha): 100% | Pre-emergence efficacy against DIGSA ([4]; 320 g/ha): 100% | Pre-emergence efficacy against SETVI ([5]; 80 g/ha): 90% | Pre-emergence efficacy against SETVI ([5]; 320 g/ha): 100% | Post-emergence efficacy against AMARE ([6]; 80 g/ha): 100% | Post-emergence efficacy against AMARE ([6]; 320 g/ha): 100% | Post-emergence efficacy against AMARE ([6]; 1280 g/ha): 100% | Post-emergence efficacy against VERPE ([7]; 80 g/ha): 100% | Post-emergence efficacy against VERPE ([7]; 320 g/ha): 100% | Post-emergence efficacy against VERPE ([7]; 1280 g/ha): 100% | Post-emergence efficacy against PHBPU in % ([8]; application rate 80 g/ha): 80% | Post-emergence efficacy against PHBPU in % ([8]; application rate 320 g/ha): 80%

O=S(=O)(CCCC(F)(F)F)Oc1c(Cl)cccc1Oc1ncc(Br)cn1 [Example I-34]
Pre-emergence efficacy against VERPE in % ([1]; 320 g/ha): 90% | Pre-emergence efficacy against VERPE in % ([1]; 1280 g/ha): 100% | Pre-emergence efficacy against STEME ([2]; dosage 320 g/ha): 90% | Pre-emergence efficacy against STEME ([2]; dosage 1280 g/ha): 90% | Pre-emergence efficacy against ABUTH ([3]; 80 g/ha): 80% | Pre-emergence efficacy against ABUTH ([3]; 320 g/ha): 90% | Pre-emergence efficacy against DIGSA ([4]; 80 g/ha): 90% | Pre-emergence efficacy against DIGSA ([4]; 320 g/ha): 100% | Pre-emergence efficacy against SETVI ([5]; 80 g/ha): 80% | Pre-emergence efficacy against SETVI ([5]; 320 g/ha): 100% | Post-emergence efficacy against AMARE ([6]; 80 g/ha): 100% | Post-emergence efficacy against AMARE ([6]; 320 g/ha): 100% | Post-emergence efficacy against AMARE ([6]; 1280 g/ha): 100% | Post-emergence efficacy against VERPE ([7]; 80 g/ha): 100% | Post-emergence efficacy against VERPE ([7]; 320 g/ha): 100% | Post-emergence efficacy against VERPE ([7]; 1280 g/ha): 100% | Post-emergence efficacy against PHBPU in % ([8]; application rate 80 g/ha): 80% | Post-emergence efficacy against PHBPU in % ([8]; application rate 320 g/ha): 100%

O=S(=O)(CCC(F)(F)F)Oc1c(Cl)cccc1Oc1ncc(Cl)cn1 [Example I-38]
Pre-emergence efficacy against VERPE in % ([1]; 320 g/ha): 90% | Pre-emergence efficacy against VERPE in % ([1]; 1280 g/ha): 100% | Pre-emergence efficacy against VERPE [1]: 90% | Pre-emergence efficacy against STEME ([2]; dosage 80 g/ha): 100% | Pre-emergence efficacy against STEME ([2]; dosage 320 g/ha): 100% | Pre-emergence efficacy against STEME ([2]; dosage 1280 g/ha): 100% | Pre-emergence efficacy against ABUTH ([3]; 80 g/ha): 100% | Pre-emergence efficacy against ABUTH ([3]; 320 g/ha): 100% | Pre-emergence efficacy against DIGSA ([4]; 80 g/ha): 100% | Pre-emergence efficacy against DIGSA ([4]; 320 g/ha): 100% | Pre-emergence efficacy against SETVI ([5]; 80 g/ha): 100% | Pre-emergence efficacy against SETVI ([5]; 320 g/ha): 100% | Post-emergence efficacy against AMARE ([6]; 1280 g/ha): 90% | Post-emergence efficacy against VERPE ([7]; 80 g/ha): 90% | Post-emergence efficacy against VERPE ([7]; 320 g/ha): 90% | Post-emergence efficacy against VERPE ([7]; 1280 g/ha): 90% | Post-emergence efficacy against PHBPU in % ([8]; application rate 80 g/ha): 100% | Post-emergence efficacy against PHBPU in % ([8]; application rate 320 g/ha): 100%

O=S(=O)(CCCC(F)(F)F)Oc1c(Cl)cccc1Oc1ncc(Cl)cn1 [Example I-39]
Pre-emergence efficacy against VERPE in % ([1]; 320 g/ha): 100% | Pre-emergence efficacy against VERPE in % ([1]; 1280 g/ha): 100% | Pre-emergence efficacy against VERPE [1]: 90% | Pre-emergence efficacy against STEME ([2]; dosage 320 g/ha): 100% | Pre-emergence efficacy against STEME ([2]; dosage 1280 g/ha): 100% | Pre-emergence efficacy against ABUTH ([3]; 80 g/ha): 100% | Pre-emergence efficacy against ABUTH ([3]; 320 g/ha): 100% | Pre-emergence efficacy against DIGSA ([4]; 80 g/ha): 100% | Pre-emergence efficacy against DIGSA ([4]; 320 g/ha): 100% | Pre-emergence efficacy against SETVI ([5]; 80 g/ha): 100% | Pre-emergence efficacy against SETVI ([5]; 320 g/ha): 100% | Post-emergence efficacy against AMARE ([6]; 320 g/ha): 90% | Post-emergence efficacy against AMARE ([6]; 1280 g/ha): 90% | Post-emergence efficacy against VERPE ([7]; 80 g/ha): 90% | Post-emergence efficacy against VERPE ([7]; 320 g/ha): 90% | Post-emergence efficacy against VERPE ([7]; 1280 g/ha): 90% | Post-emergence efficacy against PHBPU in % ([8]; application rate 80 g/ha): 90% | Post-emergence efficacy against PHBPU in % ([8]; application rate 320 g/ha): 100%

O=S(=O)(CCC(F)(F)F)Oc1c(F)cccc1Oc1ncc(Br)cn1 [Example I-40]
Pre-emergence efficacy against VERPE in % ([1]; 320 g/ha): 100% | Pre-emergence efficacy against VERPE in % ([1]; 1280 g/ha): 100% | Pre-emergence efficacy against VERPE [1]: 100% | Pre-emergence efficacy against STEME ([2]; dosage 320 g/ha): 100% | Pre-emergence efficacy against STEME ([2]; dosage 1280 g/ha): 100% | Pre-emergence efficacy against ABUTH ([3]; 80 g/ha): 100% | Pre-emergence efficacy against ABUTH ([3]; 320 g/ha): 100% | Pre-emergence efficacy against DIGSA ([4]; 80 g/ha): 100% | Pre-emergence efficacy against DIGSA ([4]; 320 g/ha): 100% | Pre-emergence efficacy against SETVI ([5]; 80 g/ha): 100% | Pre-emergence efficacy against SETVI ([5]; 320 g/ha): 100% | Post-emergence efficacy against AMARE ([6]; 320 g/ha): 90% | Post-emergence efficacy against AMARE ([6]; 1280 g/ha): 90% | Post-emergence efficacy against VERPE ([7]; 80 g/ha): 90% | Post-emergence efficacy against VERPE ([7]; 320 g/ha): 90% | Post-emergence efficacy against VERPE ([7]; 1280 g/ha): 90% | Post-emergence efficacy against PHBPU in % ([8]; application rate 80 g/ha): 100% | Post-emergence efficacy against PHBPU in % ([8]; application rate 320 g/ha): 100%

O=S(=O)(CCC(F)(F)F)Oc1c(F)cccc1Oc1ncc(F)cn1 [Example I-47]
Pre-emergence efficacy against VERPE in % ([1]; 320 g/ha): 100% | Pre-emergence efficacy against VERPE in % ([1]; 1280 g/ha): 100% | Pre-emergence efficacy against VERPE [1]: 90% | Pre-emergence efficacy against STEME ([2]; dosage 80 g/ha): 100% | Pre-emergence efficacy against STEME ([2]; dosage 320 g/ha): 100% | Pre-emergence efficacy against STEME ([2]; dosage 1280 g/ha): 100% | Pre-emergence efficacy against ABUTH ([3]; 80 g/ha): 100% | Pre-emergence efficacy against ABUTH ([3]; 320 g/ha): 100% | Pre-emergence efficacy against DIGSA ([4]; 80 g/ha): 100% | Pre-emergence efficacy against DIGSA ([4]; 320 g/ha): 100% | Pre-emergence efficacy against SETVI ([5]; 80 g/ha): 100% | Pre-emergence efficacy against SETVI ([5]; 320 g/ha): 100% | Post-emergence efficacy against PHBPU in % ([8]; application rate 80 g/ha): 90% | Post-emergence efficacy against PHBPU in % ([8]; application rate 320 g/ha): 100%
